Laboratory results: US20180071354A1, “SELECTIVE BREEDING METHOD OF ANTITUMOR/ANTICANCER CAMELLIA SINENSIS STRAIN, AND TEA PRODUCT OF SUCH STRAIN” (FUJIAN AGRICULTURE AND FORESTRY UNIVERSITY, priority 2015, published 2018)

How the values were obtained:
[1] = tested on: human cervical cancer cell line Hela; test: In vitro antitumor/anticancer testing (CCK-8), Hela; type: cell-based; conditions: 48 h
Experimental: (§1) Each of Tea Product 1 and Conventional Tea Product obtained in section A of this example was used to prepare test tea samples according to the method described below. A proper amount of the respective tea product was added into sterile water to prepare a stock solution with a concentration of 100 mg/mL, followed by using a membrane filter with a pore size of 0.22 μm to conduct vacuum filtration and sterilization. The resulting stock solution was diluted with a respective complete medium shown in Table 3 below to form test tea samples with different concentrations. In other words, the thus obtained test tea samples to be used for treating a respective cancer/tumor cell line shown in Table 3 were prepared using the same complete medium as that for the respective cancer/tumor cell line. […] Specifically, each of the aforesaid commercially available agents was subjected to the method described below to prepare comparative test samples. A proper amount of a respective commercially available agent was dissolved in phosphate-buffered saline (PBS) to prepare a stock solution with a concentration of 5 mg/mL, followed by using a membrane filter with a pore size of 0.22 μm to conduct vacuum filtration and sterilization. The resulting stock solution was diluted with a respective complete medium shown in Table 3 below to form comparative test samples with different concentrations. To be specific, the comparative test samples prepared from the respective commercially available agent have the concentrations shown in Table 2 below. The thus obtained comparative test samples to be used for treating a respective cancer/tumor cell line shown in Table 3 were prepared using the same complete medium as that for the respective cancer/tumor cell line. […] The cultivation of each cancer/tumor cell line is described as follows. […] Afterwards, a cell suspension having a cell density of 1.0×10^4 cells/mL was prepared. […] As experimental groups, the tumor/cancer cells of each cell line were treated with the test tea samples prepared from one or more of the tea products and the comparative test samples prepared from one or more of the commercially available agents as obtained in section B of this example (for more detailed information about the tea product(s) and the commercially available product (s) used to treat each cell line, please see Table 4 below). To be specific, 6 to 10 test tea samples prepared from the same tea product and having different concentrations, as well as 6 to 10 comparative test samples prepared from the same commercially available agent and having different concentrations, were utilized to treat the tumor/cancer cells of each cell line. For each experimental group, 6 repetitions of tumor/cancer treatment were performed. For the control group, 100 μL of PBS was added to a well containing the medium and the cancer/tumor cells of the respective cell line. For the blank group, 100 μL of PBS was added to a well containing a complete medium the same as that used for cultivation of the cancer/tumor cells of the respective cell line. After the treatment described above, cultivation was conducted in an incubator (37° C., 100% relative humidity, 5% CO2) for 48 hours. Subsequently, the liquid containing the medium and the sample in the well was removed, and a respective complete medium (shown in Table 3 above) containing 10% CCK-8 (Cell Counting Kit-8)(Dojindo Molecular Technologies, Inc., Cat. No. CK04-13) was added. Cultivation was performed in an incubator (37° C.) for 2 to 4 hours, followed by gently shaking.

[2] = tested on: human prostate cancer cell line PC-3; test: In vitro antitumor/anticancer testing (CCK-8), PC-3; type: cell-based; conditions: 48 h
Experimental: Each of Tea Product 1 and Conventional Tea Product obtained in section A of this example was used to prepare test tea samples according to the method described below. A proper amount of the respective tea product was added into sterile water to prepare a stock solution with a concentration of 100 mg/mL, followed by using a membrane filter with a pore size of 0.22 μm to conduct vacuum filtration and sterilization. The resulting stock solution was diluted with a respective complete medium shown in Table 3 below to form test tea samples with different concentrations. In other words, the thus obtained test tea samples to be used for treating a respective cancer/tumor cell line shown in Table 3 were prepared using the same complete medium as that for the respective cancer/tumor cell line.
Specifically, each of the aforesaid commercially available agents was subjected to the method described below to prepare comparative test samples. A proper amount of a respective commercially available agent was dissolved in phosphate-buffered saline (PBS) to prepare a stock solution with a concentration of 5 mg/mL, followed by using a membrane filter with a pore size of 0.22 μm to conduct vacuum filtration and sterilization. The resulting stock solution was diluted with a respective complete medium shown in Table 3 below to form comparative test samples with different concentrations. To be specific, the comparative test samples prepared from the respective commercially available agent have the concentrations shown in Table 2 below. The thus obtained comparative test samples to be used for treating a respective cancer/tumor cell line shown in Table 3 were prepared using the same complete medium as that for the respective cancer/tumor cell line.
The following cancer/tumor cells purchased from Chinese Academy of Sciences, Shanghai Institutes for Biological Sciences, Institute of Biochemistry and Cell Biology were used for in vitro antitumor/anticancer testing: human liver cancer cell line HepG2, human ovarian cancer cell line SK-OV-3, human cervical cancer cell line Hela, human lung cancer cell line A549, human glioblastoma cell line U-87MG, human mammary gland/duct cancer cell line BT-474, human prostate cancer cell line PC-3, human leukemia cell line HL-60, human gastric cancer cell line SMMC-7721, human colon cancer cell line HCT-116, human squamous cell carcinoma cell line A431, human leukemia cell line K562, human pancreatic cancer cell line PANC-1, and human gastric cancer cell line BGC-823.
The cultivation of each cancer/tumor cell line is described as follows. The cancer/tumor cancer cells were cultivated in the respective complete medium supplemented with 100 μg/mL penicillin and 100 μg/mL streptomycin in an incubator (37° C., 100% relative humidity, 5% CO2). When adherent cancer/tumor cells reached 80% confluence during the log-phase, cell detachment was conducted using 0.6 mL of 0.3% trypsin. Afterwards, a cell suspension having a cell density of 1.0×10^4 cells/mL was prepared. 100 μL of the cell suspension (i.e. 1000 cancer/tumor cells) was added into wells of a 96-well plate (Cat. No. 3599, Corning Costar), followed by cultivation in an incubator (37° C., 100% relative humidity, 5% CO2) for 24 hours.
As experimental groups, the tumor/cancer cells of each cell line were treated with the test tea samples prepared from one or more of the tea products and the comparative test samples prepared from one or more of the commercially available agents as obtained in section B of this example (for more detailed information about the tea product(s) and the commercially available product (s) used to treat each cell line, please see Table 4 below). To be specific, 6 to 10 test tea samples prepared from the same tea product and having different concentrations, as well as 6 to 10 comparative test samples prepared from the same commercially available agent and having different concentrations, were utilized to treat the tumor/cancer cells of each cell line. […]

[3] = In vitro antitumor/anticancer testing (CCK-8), SMMC-7721; type: cell-based, human; conditions: SMMC-7721; 48 h
Experimental: as §1

`O=C(O[C@@H]1Cc2c(O)cc(O)cc2O[C@@H]1c1cc(O)c(O)c(O)c1)c1cc(O)c(O)c(O)c1` [EGCG monomer, epigallocatechin gallate] gave a Percent growth inhibition ([1]; 0.3125 μg/mL) of 4.13%, a Percent growth inhibition ([1]; 0.625 μg/mL) of −0.68% and a Percent growth inhibition ([1]; 1.25 μg/mL) of 1.08%. It also gave a Percent growth inhibition ([1]; 2.5 μg/mL) of −8.94%, a Percent growth inhibition ([1]; 5 μg/mL) of −6.50% and a Percent growth inhibition ([1]; 10 μg/mL) of −22.63%. The Percent growth inhibition ([1]; 20 μg/mL) was −20.22%, the Percent growth inhibition ([1]; 40 μg/mL) was −23.80% and the Percent growth inhibition ([1]; 80 μg/mL) was 36.66%. For the same molecule, the IC50 ([1]; Hela) was “IC50 (μg/mL) = 101.2”, the Percent growth inhibition ([2]; 2.5 μg/mL) was 16.69% and the Percent growth inhibition ([2]; 7 μg/mL) was 19.10%. For the same molecule, the Percent growth inhibition ([2]; 10 μg/mL) was 19.64%, the Percent growth inhibition ([2]; 20 μg/mL) was 26.03% and the Percent growth inhibition ([2]; 40 μg/mL) was 40.11%. For the same molecule, the Percent growth inhibition ([2]; 80 μg/mL) was 74.43%, the Percent growth inhibition ([2]; 160 μg/mL) was 86.71% and the Percent growth inhibition ([2]; 320 μg/mL) was 96.31%. For the same molecule, the Percent growth inhibition ([2]; 640 μg/mL) was 92.53%, the IC50 ([2]; PC-3) was “IC50 (μg/mL) = 39.51” and the IC50 [3] was “IC50 (μg/mL) = 77.41”.
